Measurements taken from PubChem BioAssay AID2036 (NMMLSC, 2009).
The source made the active and inactive calls. How the calls were made is not given here.

Molecular target: Ras-related protein Rab7, wildtype (dog)
Assay: extra analogs blocking nucleotide binding to Rab7 – biochemical, additional analogs, wildtype, multiplex bead flow cytometry, SAR follow-up (AID 2036)
Settings: Rab7 GTP binding; for Ki: measured here: Ki from EC50

Structure (SMILES) | EC50 | Ki [µM]
O=Nc1c(-c2c(O)[nH]c3c(Br)cccc23)[nH]c2ccccc12 | inactive | –
O=Nc1c(-c2c(O)[nH]c3c(F)cccc23)[nH]c2ccccc12 | inactive | –
O=C1C(c2c(O)[nH]c3c(Cl)cccc23)=Nc2ccccc21 | inactive | –
CC(C)Cc1ccc([C@H](C)C(=O)O)cc1 | – | 0.31
O=C1C(c2c(O)[nH]c3ccccc23)=Nc2ccccc21 | inactive | –
O=C1N=c2ccccc2=C1c1[nH]c(=S)[nH]c1O | inactive | 0.87
CSc1ccc(/C=C2/C(C)=C(CC(=O)O)c3cc(F)ccc32)cc1 | – | 2.7
O=Nc1c(-c2c(O)[nH]c3ccccc23)[nH]c2ccccc12 | inactive | –
O=Nc1c(-c2c(O)[nH]c3c(Cl)cccc23)[nH]c2ccccc12 | inactive | –
O=C1C(c2c(O)[nH]c3ccc(Br)cc23)=Nc2ccccc21 | inactive | –
O=Nc1c(-c2c(O)[nH]c3ccc(Br)cc23)[nH]c2ccccc12 | inactive | –
O=C1C(c2c(O)[nH]c3c(Br)cccc23)=Nc2ccccc21 | inactive | –
O=C1C(c2c(O)[nH]c3c(F)cccc23)=Nc2ccccc21 | inactive | 1.56
COc1ccc(S(=O)(=O)n2c(N)c(C#N)c(-c3cncc(Br)c3)c2C(=O)c2ccccc2)cc1 | – | 0.54
COc1cc(-c2c(C#N)c(N)n(S(=O)(=O)c3c(C(C)C)cc(C(C)C)cc3C(C)C)c2C(=O)c2ccccc2)cc(OC)c1OC | – | 2.17
O=C1N=c2ccccc2=C1c1[nH]c(=O)[nH]c1O | inactive | –
